Assay: Treatment-emergent adverse events, phase 1 single-rising-dose study in healthy subjects
Type: in vivo, human
Experimental: Healthy Japanese and non-Japanese subjects between 18 and 55 years of age were recruited to participate in the study. Criteria for exclusion included prior treatment with any investigational compound within 30 days of the first TAK-063 dose, a positive test for drugs of abuse or nicotine, and an increased risk for suicide. […] Following a washout period of 7 days, subjects in cohort 3 (100 mg) received the same dose (100 mg) but under fed conditions.
The study assessed safety and tolerability in all subjects for the 4-day study duration. The primary endpoints were the percentage of subjects who experienced at least one treatment-emergent adverse event (TEAE), as well as the percentage of subjects who met predefined criteria for safety laboratory tests, vital sign measurements, and safety parameters following TAK-063 administration. The secondary endpoints were PK parameters for TAK-063 and M-I, assessing drug exposure at each dose, and the effect of food coadministration on TAK-063 PK. Exploratory endpoints included the effects of TAK-063 on domains of cognition as assessed by a computerized battery, CNS Vital Signs (CNSVS).
Adverse events, clinical laboratory tests, vital signs, 12-lead electrocardiograms (ECGs), and Columbia-Suicide Severity Rating Scale (C-SSRS) were all monitored. Intensity of AEs was classified as mild, moderate, or severe, and each AE was classified as to its relation to study drug.
Laboratory tests evaluated hematology, serum chemistry, urine, and hormone levels. Vital signs and ECGs were collected at screening, check-in, within 1 h predose, serially postdose, and at study exit, while the C-SSRS was administered at screening, check-in, and study exit. Any events reported on the C-SSRS and clinically significant laboratory abnormalities were reported as AEs.

[1] = all subjects, single 30 mg dose (n = 11)
[2] = all subjects, single 100 mg dose (n = 11)
[3] = all subjects, single 300 mg dose (n = 11)
[4] = all subjects, single 1000 mg dose (n = 11)
[5] = non-Japanese subjects, TAK-063 Total (n = 36)
[6] = non-Japanese subjects, single 3 mg dose (n = 6)
[7] = non-Japanese subjects, single 10 mg dose (n = 6)
[8] = non-Japanese subjects, single 30 mg dose (n = 6)
[9] = non-Japanese subjects, single 100 mg dose (n = 6)
[10] = non-Japanese subjects, single 300 mg dose (n = 6)
[11] = non-Japanese subjects, single 1000 mg dose (n = 6)

For `COc1cn(-c2ccc(-n3cccn3)cc2F)nc(-c2ccnn2-c2ccccc2)c1=O` [TAK-063], the “Adverse event: Somnolence” value [1] was 4 (36.4) n (%), the “Adverse event: Vomiting” value [1] was 0 n (%) and the “Adverse event: Anxiety” value [2] was 0 n (%). For the same compound, the “Adverse event: Blurred vision” value [2] was 0 n (%), the “Adverse event: Dizziness” value [2] was 0 n (%) and the “Adverse event: Dysarthria” value [2] was 0 n (%). For the same compound, the “Adverse event: Epistaxis” value [2] was 0 n (%), the “Adverse event: Headache” value [2] was 1 (9.1) n (%) and the “Adverse event: Hypotension” value [2] was 1 (9.1) n (%). For the same compound, the “Adverse event: Muscle tightness” value [2] was 0 n (%), the “Adverse event: Nausea” value [2] was 0 n (%) and the “Adverse event: Orthostatic hypotension” value [2] was 1 (9.1) n (%). For the same compound, the “Adverse event: Orthostatic tachycardia” value [2] was 2 (18.2) n (%), the “Adverse event: Somnolence” value [2] was 7 (63.6) n (%) and the “Adverse event: Vomiting” value [2] was 1 (9.1) n (%). The “Adverse event: Anxiety” value [3] was 0 n (%), the “Adverse event: Blurred vision” value [3] was 0 n (%) and the “Adverse event: Dizziness” value [3] was 1 (9.1) n (%). For the same compound, the “Adverse event: Dysarthria” value [3] was 0 n (%), the “Adverse event: Epistaxis” value [3] was 0 n (%) and the “Adverse event: Headache” value [3] was 1 (9.1) n (%). The “Adverse event: Hypotension” value [3] was 0 n (%), the “Adverse event: Muscle tightness” value [3] was 0 n (%) and the “Adverse event: Nausea” value [3] was 0 n (%). For the same compound, the “Adverse event: Orthostatic hypotension” value [3] was 1 (9.1) n (%), the “Adverse event: Orthostatic tachycardia” value [3] was 1 (9.1) n (%) and the “Adverse event: Somnolence” value [3] was 5 (45.5) n (%). The “Adverse event: Vomiting” value [3] was 1 (9.1) n (%), the “Adverse event: Anxiety” value [4] was 1 (9.1) n (%) and the “Adverse event: Blurred vision” value [4] was 1 (9.1) n (%). For the same compound, the “Adverse event: Dizziness” value [4] was 1 (9.1) n (%), the “Adverse event: Dysarthria” value [4] was 1 (9.1) n (%) and the “Adverse event: Epistaxis” value [4] was 0 n (%). For the same compound, the “Adverse event: Headache” value [4] was 0 n (%), the “Adverse event: Hypotension” value [4] was 0 n (%) and the “Adverse event: Muscle tightness” value [4] was 0 n (%). For the same compound, the “Adverse event: Nausea” value [4] was 1 (9.1) n (%), the “Adverse event: Orthostatic hypotension” value [4] was 5 (45.5) n (%) and the “Adverse event: Orthostatic tachycardia” value [4] was 7 (63.6) n (%). For the same compound, the “Adverse event: Somnolence” value [4] was 6 (54.5) n (%), the “Adverse event: Vomiting” value [4] was 1 (9.1) n (%) and the “Total incidence of TEAEs” value (non-Japanese subjects treated with TAK-063) was 52.8%. The “Adverse event: Anxiety” value [5] was 1 (2.8) n (%), the “Adverse event: Blurred vision” value [5] was 1 (2.8) n (%) and the “Adverse event: Dizziness” value [5] was 2 (5.6) n (%). For the same compound, the “Adverse event: Dysarthria” value [5] was 1 (2.8) n (%), the “Adverse event: Headache” value [5] was 1 (2.8) n (%) and the “Adverse event: Hypotension” value [5] was 1 (2.8) n (%). For the same compound, the “Adverse event: Nausea” value [5] was 2 (5.6) n (%), the “Adverse event: Orthostatic hypotension” value [5] was 3 (8.3) n (%) and the “Adverse event: Orthostatic tachycardia” value [5] was 8 (22.2) n (%). The “Adverse event: Somnolence” value [5] was 12 (33.3) n (%), the “Adverse event: Vomiting” value [5] was 1 (2.8) n (%) and the “Adverse event: Anxiety” value [6] was 0 n (%). The “Adverse event: Blurred vision” value [6] was 0 n (%), the “Adverse event: Dizziness” value [6] was 0 n (%) and the “Adverse event: Dysarthria” value [6] was 0 n (%). The “Adverse event: Headache” value [6] was 0 n (%), the “Adverse event: Hypotension” value [6] was 0 n (%) and the “Adverse event: Nausea” value [6] was 0 n (%). For the same compound, the “Adverse event: Orthostatic hypotension” value [6] was 0 n (%), the “Adverse event: Orthostatic tachycardia” value [6] was 2 (33.3) n (%) and the “Adverse event: Somnolence” value [6] was 0 n (%). The “Adverse event: Vomiting” value [6] was 0 n (%), the “Adverse event: Anxiety” value [7] was 0 n (%) and the “Adverse event: Blurred vision” value [7] was 0 n (%). For the same compound, the “Adverse event: Dizziness” value [7] was 0 n (%), the “Adverse event: Dysarthria” value [7] was 0 n (%) and the “Adverse event: Headache” value [7] was 0 n (%). The “Adverse event: Hypotension” value [7] was 0 n (%), the “Adverse event: Nausea” value [7] was 0 n (%) and the “Adverse event: Orthostatic hypotension” value [7] was 0 n (%). The “Adverse event: Orthostatic tachycardia” value [7] was 0 n (%), the “Adverse event: Somnolence” value [7] was 0 n (%) and the “Adverse event: Vomiting” value [7] was 0 n (%). For the same compound, the “Adverse event: Anxiety” value [8] was 0 n (%), the “Adverse event: Blurred vision” value [8] was 0 n (%) and the “Adverse event: Dizziness” value [8] was 1 (16.7) n (%). The “Adverse event: Dysarthria” value [8] was 0 n (%), the “Adverse event: Headache” value [8] was 0 n (%) and the “Adverse event: Hypotension” value [8] was 0 n (%). For the same compound, the “Adverse event: Nausea” value [8] was 2 (33.3) n (%), the “Adverse event: Orthostatic hypotension” value [8] was 0 n (%) and the “Adverse event: Orthostatic tachycardia” value [8] was 0 n (%). The “Adverse event: Somnolence” value [8] was 3 (50.0) n (%), the “Adverse event: Vomiting” value [8] was 0 n (%) and the “Adverse event: Anxiety” value [9] was 0 n (%). The “Adverse event: Blurred vision” value [9] was 0 n (%), the “Adverse event: Dizziness” value [9] was 0 n (%) and the “Adverse event: Dysarthria” value [9] was 0 n (%). For the same compound, the “Adverse event: Headache” value [9] was 0 n (%), the “Adverse event: Hypotension” value [9] was 1 (16.7) n (%) and the “Adverse event: Nausea” value [9] was 0 n (%). The “Adverse event: Orthostatic hypotension” value [9] was 0 n (%), the “Adverse event: Orthostatic tachycardia” value [9] was 2 (33.3) n (%) and the “Adverse event: Somnolence” value [9] was 3 (50.0) n (%). For the same compound, the “Adverse event: Vomiting” value [9] was 0 n (%), the “Adverse event: Anxiety” value [10] was 0 n (%) and the “Adverse event: Blurred vision” value [10] was 0 n (%). For the same compound, the “Adverse event: Dizziness” value [10] was 1 (16.7) n (%), the “Adverse event: Dysarthria” value [10] was 0 n (%) and the “Adverse event: Headache” value [10] was 1 (16.7) n (%). For the same compound, the “Adverse event: Hypotension” value [10] was 0 n (%), the “Adverse event: Nausea” value [10] was 0 n (%) and the “Adverse event: Orthostatic hypotension” value [10] was 0 n (%). For the same compound, the “Adverse event: Orthostatic tachycardia” value [10] was 0 n (%), the “Adverse event: Somnolence” value [10] was 3 (50.0) n (%) and the “Adverse event: Vomiting” value [10] was 1 (16.7) n (%). For the same compound, the “Adverse event: Anxiety” value [11] was 1 (16.7) n (%), the “Adverse event: Blurred vision” value [11] was 1 (16.7) n (%) and the “Adverse event: Dizziness” value [11] was 0 n (%). For the same compound, the “Adverse event: Dysarthria” value [11] was 1 (16.7) n (%), the “Adverse event: Headache” value [11] was 0 n (%) and the “Adverse event: Hypotension” value [11] was 0 n (%). The “Adverse event: Nausea” value [11] was 0 n (%), the “Adverse event: Orthostatic hypotension” value [11] was 3 (50.0) n (%) and the “Adverse event: Orthostatic tachycardia” value [11] was 4 (66.7) n (%). The “Adverse event: Somnolence” value [11] was 3 (50.0) n (%), the “Adverse event: Vomiting” value [11] was 0 n (%) and the “Association with hyperprolactinemia, hyperglycemia, or other metabolic disturbances” value (single dose) was “not associated”. For the same compound, the “Deaths, serious AEs” value (single doses 3 to 1000 mg) was “No deaths or other serious AEs were reported”, the Maximum tolerated dose (single doses up to 1000 mg) was “not defined” and the Safety and tolerability (single doses up to 1000 mg) was “safe and well tolerated”.
